Test results reported in US20240189307A1, “METHODS OF STABILIZING THE NEURONAL PROTEOME AGAINST COLLAPSE AND PROTECTING VASCULAR CELLS” (ALBERT EINSTEIN COLLEGE OF MEDICINE, priority 2021, published 2024).

How the values were obtained:
[1] = Blood cell count and histopathology of peripheral organs (liver, lung, kidney) after daily oral administration; type: in vivo; settings: after 3 months of daily treatment
[2] = tested on: KFERQ-Dendra mice; experiment: CMA activation in brain of KFERQ-Dendra mice; settings: administered in vivo
Source text: To test this possibility, we measured CMA in a mouse model of tau-mediated proteotoxicity expressing mutant human tau (hTau^P301L) under the Thy 1.2 promotor (line pR5). We crossed hTau^P301L mice with a transgenic mouse model that expresses systemically a KFERQ-tagged fluorescent protein Dendra2 (KFERQ-Dendra), recently developed by our group. This reporter protein, when targeted for degradation via CMA, highlights lysosomes as fluorescent puncta, that can be counted as read out of CMA activity.

[3] = tested on: PS19 mice (tau P301S); experiment: PS19 mouse model of Frontotemporal dementia-related proteotoxicity, oral daily CA; type: in vivo
Protocol: FIG. 11. Chemical activation of CMA improves behavior and neuropathology in a mouse model of Frontotemporal dementia-related proteotoxicity. (A) Schematic of regimen of CMA activator (CA) administration to mice overexpressing human P301S tau (PS19). (B, C) Spontaneous locomotion in an open field of 9-month-old CTR or PS19 mice administered vehicle (Veh) or CA. Representative tracks (B) and total distance traveled in 10 min (C). (D-H) Immunostaining for MC1 tau in the hippocampus, the amygdala and the piriform cortex of 9 months old CTR, PS19 +/− CA. Representative images of the indicated brain regions (D). Scale bars: hippocampus: 500 μm, amygdala and piriform cortex: 200 μm. Quantification of the area stained in the hippocampus (E), (F-J) Immunoblots for tau and phosphorylated tau. Representative immunoblots and densitometric quantifications for the indicated proteins: S422-phosphorylated tau (G), S202/T205-phosphorylated tau (AT8) (H), MC1 tau (I) and total tau (J). (K-M) Immunostaining for Iba1 (K) and quantification of average cell size in the hippocampus (L) and the piriform cortex (M). Scale bars: hippocampus: 500 μm and piriform cortex: 200 μm. Data are mean+s.e.m. Individual values are shown for n=9-10 mice per genotype and treatment in C, E, G-M). Comparisons were made using one-way ANOVA followed by Tukey's post-hoc analysis (C, E, G, I-M) or Kruskal-Wallis test followed by Dunn's post hoc test (H). *p<0.05, **p<0.005, ***p<0.0005.
Male wild-type mice (C57BL/6J) or transgenic for CaMKIIα-Cre (B6.Cg-Tg(Camk2α-cre)T29-1Stl/J, Jackson Laboratory), LAMP-2A^flox/flox (Schneider et al., 2014), Tau^P301L (line pR5), Tg (APP^Swe; PS2^N141I; Tau^P301L), PS19 (Tau^P301S) (Yoshiyama et al., 2007) and Atg7^f/f were used in the study. Conditional LAMP-2A deletion was generated by breeding LAMP-2A^flox/flox with the transgenic Cre mice of interest. Knockout for L2A in the whole body (L2A^−/−) was generated by insemination of a wild-type female with spermatozoids with L2A floxed to excise this gene in all tissues in the offspring. Male littermate wild type and only L2A^f/f were separately analyzed for each test and because no differences were detected among them, they were grouped in the results as “control” (CTR) for the experimental group (^CamKII[…] CreL2A^f/f or L2A^−/−). All mice were genotyped at weaning and genotyping was re-confirmed postmortem to correct for any possible misplacement during husbandry. Mice were all in the C57BL/6J background and maintained under specific pathogen-free conditions in ventilated cages with no more than 5 mice per cage. Only males were used in this study due to the complexity in generating the quadruple transgenic mouse model with L2A knock out in homozygosis (for which we took advantage of the location of the Lamp2 gene in the X chromosome). Age of the animals was 4-6 months in most experiments except when otherwise indicated in text, figures and figure legends. Animals were maintained at 19-23° C. in 12 h light/dark cycle. Mice were fed ad libitum. CA77.1 was administered as sucralose jelly pellets for a daily dose of 30 mg/Kg body weight whereas the vehicle treated group received the same sucralose jelly pellet without drug. Briefly, for preparation of the jelly pellets the final amount of the compound per day (adjusted per animal weight) was dissolved in ethanol and then mixed with a warm gelatin solution (100 mg/ml, 10 mg/ml sucralose in water), that was poured into 24 well flat bottom plates for solidification. To avoid animal stress and competition for the pellets, animals were separated with a grid spacer in the same cage that they were housed, eating of the pellet was monitored and the spacer was removed as soon as all mice consumed the pellet (average time 2 min). Sentinel animals were included in each study to determine brain exposure at the end of treatment. These animals received the same batch of jelly pellets in parallel to the experimental group. […]

Structure (SMILES): CC(=O)Nc1ccc(-c2cnc3cc(Cl)ccc3n2)cc1 [CA77.1]
- blood or major organs toxicity [1]: absence of blood or major organs toxicity
- activation of CMA in brain in vivo [2]: activation of CMA in brain of KFERQ-Dendra mice
- spontaneous locomotion in open field (locomotor hyperactivity) ([3]; 30 mg/kg body weight oral daily for 6 months from 3 months of age): normalized the previously described locomotor hyperactivity of PS19 mice to control levels
- immunoblot levels of aberrant, phosphorylated, oligomeric and insoluble tau ([3]; 30 mg/kg oral daily, 6 months): lower levels of conformationally aberrant, S422 and AT8 phosphorylated, oligomeric and insoluble forms of tau
- total levels of human tau ([3]; 30 mg/kg oral daily, 6 months): did not reduce total levels of human tau
- number of microglial cells and large Iba1-positive dystrophic cells ([3]; hippocampus and piriform cortex, 30 mg/kg oral daily, 6 months): reduced upon CA treatment
- MC1 pathogenic tau conformations, levels and number of neurons ([3]; hippocampus, amygdala and piriform cortex, 30 mg/kg oral daily, 6 months): reduced the levels and number of neurons containing pathogenic tau conformations
- mice with tau Type III pathology (S202/T205, AT8 staining) ([3]; hippocampus, 30 mg/kg oral daily, 6 months, vehicle 60%): 10%
